# Assay results published in ChEMBL document CHEMBL1201862, “PubChem BioAssay data set” (2004).
# The source made the active and inactive calls.
# How the values were obtained:
# HEK293 = assay: cells; format: functional, cell-based; conditions: Homo sapiens
# Major prion protein = Major prion protein (Homo sapiens, UniProt P04156); format: functional, cell-based
# [1] = target: T1, Nuclear receptor subfamily 0 group B member 1 (Homo sapiens, UniProt P51843); assay: Luminescence-based cell-based high throughput dose response assay for inhibitors of the orphan nuclear receptor subfamily 0, group B, member 1 (DAX1; NR0B1). [Related pubchem assays (depositor defined):AID504766, AID504790]; format: functional
# T1 sequence (P51843 whole entry): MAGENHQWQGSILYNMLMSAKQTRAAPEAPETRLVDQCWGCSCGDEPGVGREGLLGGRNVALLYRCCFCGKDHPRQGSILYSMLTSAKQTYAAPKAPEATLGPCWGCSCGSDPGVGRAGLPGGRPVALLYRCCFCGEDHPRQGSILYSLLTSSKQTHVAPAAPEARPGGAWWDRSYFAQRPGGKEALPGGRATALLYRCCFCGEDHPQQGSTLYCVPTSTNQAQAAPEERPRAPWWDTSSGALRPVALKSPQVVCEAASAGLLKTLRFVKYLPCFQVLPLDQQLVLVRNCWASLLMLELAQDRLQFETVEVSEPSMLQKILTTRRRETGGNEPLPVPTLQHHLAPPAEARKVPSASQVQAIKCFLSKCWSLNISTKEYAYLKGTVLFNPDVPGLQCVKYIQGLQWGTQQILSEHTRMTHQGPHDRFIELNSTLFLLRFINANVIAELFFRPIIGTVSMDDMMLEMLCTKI
# [2] = target: UDP-galactopyranose mutase (Mycobacterium tuberculosis, UniProt P9WIQ1); assay: Inhibitors of Mycobacterium tuberculosis UDP-galactopyranose mutase (UGM) enzyme Measured in Biochemical System Using Plate Reader - 2105-02_Inhibitor_Dose_CherryPick_Activity. [Related pubchem assays (depositor defined):AID504439]
# UDP-galactopyranose mutase, sequence (P9WIQ1 whole entry, the tested form may be a part): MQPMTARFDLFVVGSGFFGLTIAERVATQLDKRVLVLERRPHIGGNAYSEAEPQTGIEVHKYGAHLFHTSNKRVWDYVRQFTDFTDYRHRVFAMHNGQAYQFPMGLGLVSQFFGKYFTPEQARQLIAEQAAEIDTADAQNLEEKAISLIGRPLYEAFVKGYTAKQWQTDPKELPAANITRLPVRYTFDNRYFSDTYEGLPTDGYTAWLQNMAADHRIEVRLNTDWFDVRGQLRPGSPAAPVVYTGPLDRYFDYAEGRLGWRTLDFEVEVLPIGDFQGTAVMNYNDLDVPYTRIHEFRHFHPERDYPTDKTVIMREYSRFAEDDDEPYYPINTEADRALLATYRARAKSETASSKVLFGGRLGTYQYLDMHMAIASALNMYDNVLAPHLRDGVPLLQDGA
# [3] = target: T2, RNA-binding protein pos-1 (Caenorhabditis elegans, UniProt G5EF15); assay: inhibitors of POS-1/mex-3 RNA binding, dose response, biochemical, fluorescence polarization (AID 1964);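 also: purified POS-1 fused to maltose binding protein made in E. coli; potency of compounds blocking POS-1 binding to fluorescent RNA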
# T2 sequence (G5EF15 whole entry): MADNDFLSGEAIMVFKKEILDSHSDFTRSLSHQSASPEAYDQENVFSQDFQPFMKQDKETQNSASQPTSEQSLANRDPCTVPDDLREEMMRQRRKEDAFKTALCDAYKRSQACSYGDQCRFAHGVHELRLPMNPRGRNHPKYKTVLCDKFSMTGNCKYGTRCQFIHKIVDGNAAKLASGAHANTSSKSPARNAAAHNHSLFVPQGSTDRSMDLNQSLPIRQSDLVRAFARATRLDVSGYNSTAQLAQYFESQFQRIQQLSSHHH
# [4] = cytotoxicity toward DRD oncogenic fibroblasts, dose response, cell-based, non-viral oncogenic, luminescence (AID 1934); format: functional; conditions: Homo sapiens
# HeLa = assay: HeLa cell cytotoxicity, dose response, cytotoxicity control, 24 h, cherry-picked samples (AID 504726); format: functional, cell-based; conditions: Homo sapiens;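 also: potency for cytotoxicity as loss of luminescence signal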
# INS1 = assay: beta cell apoptosis inhibitors, cytokine rescue, dose response, luminescence, retest (AID 449756); format: functional, cell-based; conditions: Rattus norvegicus;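 also: cell death triggered by IL-1 beta plus TNF-alpha plus IFN-gamma mixture; protective hits raise ATP signal compared with cytokine alone wells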
# BJ [5] = assay: cytotoxicity toward BJ-TERT fibroblasts, dose response, cell-based, RAS-independent, luminescence (AID 1933); format: functional; conditions: Homo sapiens
# Protein S100-A4 = Protein S100-A4 (Homo sapiens, UniProt P26447); assay: S100A4-myosin IIA binding inhibitor potency, dose response, biochemical, fluorescence polarization, cherry-picked hits (AID 687001); format: functional
# Protein S100-A4, sequence (P26447 whole entry): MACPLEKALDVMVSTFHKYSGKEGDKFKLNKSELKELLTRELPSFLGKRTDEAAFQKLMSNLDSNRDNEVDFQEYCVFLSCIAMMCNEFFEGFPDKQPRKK
# ORF 73 = target: T3, ORF 73 (Human herpesvirus 8, UniProt O40947); assay: inhibitors of C-LANA binding to LBS DNA, dose response, biochemical, fluorescence polarization, cherry-picked samples (AID 504725); parameters: species or system Human gammaherpesvirus 8;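 also: fluorescence polarization of a labeled DNA duplex reporting LANA DNA binding; potency is for inhibitors that block LANA binding to the DNA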
# T3 sequence (O40947 whole entry): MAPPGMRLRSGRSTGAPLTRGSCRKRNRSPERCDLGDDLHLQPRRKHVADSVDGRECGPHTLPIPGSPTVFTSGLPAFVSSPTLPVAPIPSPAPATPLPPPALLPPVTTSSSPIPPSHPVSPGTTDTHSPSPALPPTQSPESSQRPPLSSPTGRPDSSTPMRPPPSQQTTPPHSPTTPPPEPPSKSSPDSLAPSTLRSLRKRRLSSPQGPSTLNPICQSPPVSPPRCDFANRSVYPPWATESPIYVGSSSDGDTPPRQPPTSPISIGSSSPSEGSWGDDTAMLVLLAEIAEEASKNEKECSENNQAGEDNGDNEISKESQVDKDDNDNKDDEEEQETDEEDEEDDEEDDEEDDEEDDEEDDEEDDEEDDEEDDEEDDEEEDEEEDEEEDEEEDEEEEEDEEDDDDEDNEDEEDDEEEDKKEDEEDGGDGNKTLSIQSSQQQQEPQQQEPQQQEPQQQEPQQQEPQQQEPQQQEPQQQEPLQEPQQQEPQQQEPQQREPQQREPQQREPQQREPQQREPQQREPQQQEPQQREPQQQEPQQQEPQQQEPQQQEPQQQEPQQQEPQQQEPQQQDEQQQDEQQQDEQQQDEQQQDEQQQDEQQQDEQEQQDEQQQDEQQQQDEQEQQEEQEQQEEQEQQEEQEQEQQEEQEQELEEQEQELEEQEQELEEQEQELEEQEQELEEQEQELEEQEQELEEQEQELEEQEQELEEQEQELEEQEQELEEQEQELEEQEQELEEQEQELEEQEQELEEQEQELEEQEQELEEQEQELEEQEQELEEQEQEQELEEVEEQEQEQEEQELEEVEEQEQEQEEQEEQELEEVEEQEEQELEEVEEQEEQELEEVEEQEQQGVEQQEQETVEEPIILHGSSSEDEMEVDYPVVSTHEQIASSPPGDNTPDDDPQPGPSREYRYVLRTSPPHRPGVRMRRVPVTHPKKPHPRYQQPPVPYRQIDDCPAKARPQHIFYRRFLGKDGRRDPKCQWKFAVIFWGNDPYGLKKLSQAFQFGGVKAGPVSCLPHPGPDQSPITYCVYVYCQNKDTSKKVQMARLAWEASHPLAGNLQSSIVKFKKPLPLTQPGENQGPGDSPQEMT
# [6] = target: T4, Replicative DNA helicase DnaB (Mycobacterium tuberculosis, UniProt P9WMR3); assay: DnaB intein splicing inhibitors, dose response, biochemical, cell-free fluorescence (AID 449749); format: functional
# T4 sequence (P9WMR3 whole entry): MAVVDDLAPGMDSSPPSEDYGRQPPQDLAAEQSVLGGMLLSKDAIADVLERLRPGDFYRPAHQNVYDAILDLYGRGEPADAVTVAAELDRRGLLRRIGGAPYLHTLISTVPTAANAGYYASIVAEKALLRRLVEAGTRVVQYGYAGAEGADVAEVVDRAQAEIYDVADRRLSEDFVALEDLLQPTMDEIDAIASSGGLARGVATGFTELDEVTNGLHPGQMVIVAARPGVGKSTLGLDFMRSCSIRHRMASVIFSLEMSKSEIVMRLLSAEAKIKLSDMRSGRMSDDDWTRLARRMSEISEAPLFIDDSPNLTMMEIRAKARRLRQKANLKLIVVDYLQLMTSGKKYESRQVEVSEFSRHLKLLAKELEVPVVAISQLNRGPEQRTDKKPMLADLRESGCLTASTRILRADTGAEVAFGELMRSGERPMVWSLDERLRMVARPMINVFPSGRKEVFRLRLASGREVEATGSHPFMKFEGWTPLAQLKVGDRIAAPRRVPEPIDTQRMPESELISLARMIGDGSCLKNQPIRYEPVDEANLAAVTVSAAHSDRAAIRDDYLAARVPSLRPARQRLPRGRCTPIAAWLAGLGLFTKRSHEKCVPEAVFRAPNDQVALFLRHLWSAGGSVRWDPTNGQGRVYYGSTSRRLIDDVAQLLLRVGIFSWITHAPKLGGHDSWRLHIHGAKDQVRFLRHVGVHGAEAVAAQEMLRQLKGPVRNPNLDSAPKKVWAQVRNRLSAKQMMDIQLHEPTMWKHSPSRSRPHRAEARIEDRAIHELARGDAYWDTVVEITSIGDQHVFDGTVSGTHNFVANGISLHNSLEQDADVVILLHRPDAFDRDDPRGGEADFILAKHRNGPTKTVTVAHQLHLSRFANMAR
# BJ [7] = assay: cells; format: functional, cell-based; conditions: Homo sapiens
# Keap1/Nrf2 = Keap1/Nrf2 (Homo sapiens, UniProt Q14145); assay: Keap1-Nrf2 protein-protein interaction inhibitors, dose response, biochemical, fluorescence polarization, cherry-picked samples (AID 588683)
# Keap1/Nrf2, sequence (Q16236 whole entry): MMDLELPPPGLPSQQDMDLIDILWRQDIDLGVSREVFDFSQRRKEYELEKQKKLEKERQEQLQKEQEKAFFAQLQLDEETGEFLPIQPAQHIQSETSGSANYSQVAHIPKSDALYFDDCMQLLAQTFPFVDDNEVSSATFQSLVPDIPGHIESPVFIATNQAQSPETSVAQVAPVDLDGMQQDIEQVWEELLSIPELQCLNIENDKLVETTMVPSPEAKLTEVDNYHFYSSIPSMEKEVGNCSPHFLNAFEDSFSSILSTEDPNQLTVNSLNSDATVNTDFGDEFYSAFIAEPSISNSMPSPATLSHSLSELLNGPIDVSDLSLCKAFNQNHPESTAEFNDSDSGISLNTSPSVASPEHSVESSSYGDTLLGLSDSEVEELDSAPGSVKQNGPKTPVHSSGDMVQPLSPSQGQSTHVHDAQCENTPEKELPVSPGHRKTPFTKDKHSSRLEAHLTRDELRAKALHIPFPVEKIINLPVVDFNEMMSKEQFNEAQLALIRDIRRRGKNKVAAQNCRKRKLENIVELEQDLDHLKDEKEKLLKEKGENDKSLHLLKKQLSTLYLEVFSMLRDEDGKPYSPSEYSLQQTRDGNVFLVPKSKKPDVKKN
# Keap1/Nrf2, sequence (Q14145 whole entry): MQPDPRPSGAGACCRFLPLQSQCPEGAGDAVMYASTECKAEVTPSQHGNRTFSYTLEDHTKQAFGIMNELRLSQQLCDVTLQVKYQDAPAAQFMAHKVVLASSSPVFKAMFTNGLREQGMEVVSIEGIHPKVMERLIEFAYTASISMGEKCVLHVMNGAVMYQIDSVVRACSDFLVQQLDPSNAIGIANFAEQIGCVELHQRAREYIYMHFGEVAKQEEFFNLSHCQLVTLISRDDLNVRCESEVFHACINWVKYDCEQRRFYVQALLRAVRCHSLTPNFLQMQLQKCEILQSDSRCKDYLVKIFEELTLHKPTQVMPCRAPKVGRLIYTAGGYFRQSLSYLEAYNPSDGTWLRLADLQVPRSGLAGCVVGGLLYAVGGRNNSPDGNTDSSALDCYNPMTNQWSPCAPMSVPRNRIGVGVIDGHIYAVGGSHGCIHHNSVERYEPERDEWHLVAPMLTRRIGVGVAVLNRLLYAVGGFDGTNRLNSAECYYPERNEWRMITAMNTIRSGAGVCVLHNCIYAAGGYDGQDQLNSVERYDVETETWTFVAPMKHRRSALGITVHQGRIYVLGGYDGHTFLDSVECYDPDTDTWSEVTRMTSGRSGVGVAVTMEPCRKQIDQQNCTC
# Protein RecA = target: T5, Protein RecA (Mycobacterium tuberculosis, UniProt P9WHJ3); assay: Fluorescence Cell-Free Homogeneous Dose Retest to Identify Inhibitors of RecA-Intein Splicing Activity. [Related pubchem assays (depositor defined):AID2097, AID2223, AID489010, AID492950]; format: functional
# T5 sequence (P9WHJ3 whole entry): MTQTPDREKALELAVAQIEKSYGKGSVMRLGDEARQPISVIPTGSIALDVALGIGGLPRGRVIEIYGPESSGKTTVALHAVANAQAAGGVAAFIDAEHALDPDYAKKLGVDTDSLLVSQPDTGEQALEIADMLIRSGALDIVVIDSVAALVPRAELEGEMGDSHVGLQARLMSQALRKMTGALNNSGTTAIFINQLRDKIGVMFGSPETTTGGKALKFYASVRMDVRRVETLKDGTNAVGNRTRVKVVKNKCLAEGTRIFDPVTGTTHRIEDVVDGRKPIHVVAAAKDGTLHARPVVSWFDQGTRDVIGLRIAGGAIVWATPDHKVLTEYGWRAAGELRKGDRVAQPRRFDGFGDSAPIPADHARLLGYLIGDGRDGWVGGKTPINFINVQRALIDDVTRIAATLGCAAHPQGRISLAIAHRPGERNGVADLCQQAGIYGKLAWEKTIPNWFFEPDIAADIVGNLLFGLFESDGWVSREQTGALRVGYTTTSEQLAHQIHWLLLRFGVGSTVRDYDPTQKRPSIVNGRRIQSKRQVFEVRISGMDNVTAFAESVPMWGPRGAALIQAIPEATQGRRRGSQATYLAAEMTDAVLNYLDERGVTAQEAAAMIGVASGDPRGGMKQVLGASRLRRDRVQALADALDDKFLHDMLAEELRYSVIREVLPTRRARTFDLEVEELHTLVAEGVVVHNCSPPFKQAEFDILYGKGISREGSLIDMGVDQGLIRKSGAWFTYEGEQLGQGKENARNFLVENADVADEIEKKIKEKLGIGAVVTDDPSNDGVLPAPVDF
# BJ [8] = assay: cytotoxicity toward BJ-TERT-LT-ST fibroblasts, dose response, cell-based, RAS-independent, luminescence (AID 1935); format: functional; conditions: Homo sapiens;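 also: BJ fibroblasts immortalized with TERT plus LT and ST oncogenes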
# Plasmodium falciparum [9] = assay: Primary qHTS for delayed death inhibitors of the malarial parasite plastid, 96 hour incubation. [Related pubchem assays (depositor defined):AID488745, AID488752, AID488774, AID504848, AID504850]; format: functional; conditions: read-out: Potency
# Plasmodium falciparum [10] = assay: Primary qHTS for delayed death inhibitors of the malarial parasite plastid, 48 hour incubation. [Related pubchem assays (depositor defined):AID488752, AID488774, AID504848, AID504850]; format: functional; conditions: read-out: Potency
# Hexokinase HKDC1 = target: T6, Hexokinase HKDC1 (Homo sapiens, UniProt Q2TB90); assay: SAR analysis of small molecule inhibitors of hexokinase domain containing I (HKDC1). [Related pubchem assays (depositor defined):AID493160, AID493190]; format: functional
# T6 sequence (Q2TB90 whole entry): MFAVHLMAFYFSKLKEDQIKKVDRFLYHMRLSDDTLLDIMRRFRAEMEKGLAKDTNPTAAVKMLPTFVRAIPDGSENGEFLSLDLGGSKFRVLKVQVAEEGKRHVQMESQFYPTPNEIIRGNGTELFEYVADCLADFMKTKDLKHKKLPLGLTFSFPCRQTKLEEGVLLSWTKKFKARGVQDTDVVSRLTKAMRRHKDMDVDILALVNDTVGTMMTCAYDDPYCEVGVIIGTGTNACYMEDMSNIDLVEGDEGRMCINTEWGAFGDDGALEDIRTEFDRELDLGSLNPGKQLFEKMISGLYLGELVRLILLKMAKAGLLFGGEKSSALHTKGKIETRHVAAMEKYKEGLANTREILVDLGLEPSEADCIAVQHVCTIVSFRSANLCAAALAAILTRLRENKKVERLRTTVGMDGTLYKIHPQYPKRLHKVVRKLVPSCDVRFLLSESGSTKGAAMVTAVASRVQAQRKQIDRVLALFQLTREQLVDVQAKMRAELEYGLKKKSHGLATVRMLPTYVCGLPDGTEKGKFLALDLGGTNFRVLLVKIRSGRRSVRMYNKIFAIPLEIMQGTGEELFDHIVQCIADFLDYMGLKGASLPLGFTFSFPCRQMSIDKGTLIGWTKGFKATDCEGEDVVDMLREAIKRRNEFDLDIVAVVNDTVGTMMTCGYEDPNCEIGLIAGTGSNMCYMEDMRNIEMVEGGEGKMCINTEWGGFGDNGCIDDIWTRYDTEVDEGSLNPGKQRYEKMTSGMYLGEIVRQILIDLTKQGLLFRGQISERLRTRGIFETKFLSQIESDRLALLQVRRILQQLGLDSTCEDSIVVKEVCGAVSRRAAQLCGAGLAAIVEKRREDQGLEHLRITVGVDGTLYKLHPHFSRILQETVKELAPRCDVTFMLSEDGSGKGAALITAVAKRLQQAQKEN
# Hexokinase-1 = Hexokinase-1 (Homo sapiens, UniProt P19367); assay: SAR analysis of small molecule inhibitors of hexokinase domain containing I (HKDC1) in the hexokinase 1 selectivity assay. [Related pubchem assays (depositor defined):AID493160, AID493190]; format: functional
# Hexokinase-1, sequence (P19367 whole entry, the tested form may be a part): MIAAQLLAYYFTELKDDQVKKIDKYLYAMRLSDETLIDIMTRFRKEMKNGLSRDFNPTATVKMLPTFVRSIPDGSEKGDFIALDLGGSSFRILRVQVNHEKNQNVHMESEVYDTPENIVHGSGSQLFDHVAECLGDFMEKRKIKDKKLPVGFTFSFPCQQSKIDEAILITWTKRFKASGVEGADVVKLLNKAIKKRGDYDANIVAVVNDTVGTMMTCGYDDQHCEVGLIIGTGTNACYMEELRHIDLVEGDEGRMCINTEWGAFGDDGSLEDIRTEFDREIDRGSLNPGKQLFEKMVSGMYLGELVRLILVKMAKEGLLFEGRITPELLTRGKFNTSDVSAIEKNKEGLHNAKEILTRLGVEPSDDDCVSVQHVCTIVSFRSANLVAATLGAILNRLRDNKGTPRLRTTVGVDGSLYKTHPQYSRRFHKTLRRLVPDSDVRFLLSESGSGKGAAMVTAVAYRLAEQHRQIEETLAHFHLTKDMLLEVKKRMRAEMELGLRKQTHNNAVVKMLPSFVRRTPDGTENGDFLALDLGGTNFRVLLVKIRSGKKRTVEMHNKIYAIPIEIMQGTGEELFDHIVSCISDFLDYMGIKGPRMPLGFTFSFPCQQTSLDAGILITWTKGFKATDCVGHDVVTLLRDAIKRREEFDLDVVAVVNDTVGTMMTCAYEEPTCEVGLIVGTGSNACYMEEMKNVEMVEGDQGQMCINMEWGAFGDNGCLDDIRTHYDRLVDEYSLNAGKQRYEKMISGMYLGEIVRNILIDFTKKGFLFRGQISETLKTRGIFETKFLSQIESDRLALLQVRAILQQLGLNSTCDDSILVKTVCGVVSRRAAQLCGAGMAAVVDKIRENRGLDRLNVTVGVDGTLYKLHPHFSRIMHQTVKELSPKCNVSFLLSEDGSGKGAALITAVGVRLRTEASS
smiles,measurement,setting,value
CC(C)CSc1nnc2c3ccccc3n(C)c2n1,IC50,cells,> 138 µM (inactive)
same,IC50,HEK293,> 67.5 µM (inactive)
same,IC50,Major prion protein,4.37 µM (active)
same,IC50,[1],> 67.5 µM (inactive)
COCCNC(=O)Cn1cc(/C=C2\C(=O)NC(=O)N(c3ccccc3F)C2=O)c2ccccc21,AC50,[2],32.1 µM (active)
same,EC50,[3],6.32 µM (active)
CN1CCN(c2ccc([N+](=O)[O-])c3no[n+]([O-])c23)CC1,EC50,[4],5.89 µM (active)
same,AC50,HeLa,2.57 µM (active)
same,AC50,INS1,1.83 µM (active)
same,EC50,BJ [5],0.793 µM (active)
same,AC50,Protein S100-A4,3.3 µM (active)
same,AC50,ORF 73,12.6 µM (active)
same,AC50,[6],> 380 µM (inactive)
same,EC50,BJ [7],2.37 µM (inconclusive)
same,AC50,Keap1/Nrf2,> 52 µM (inactive)
same,EC50,Protein RecA,> 380 µM (inactive)
same,EC50,BJ [8],1.13 µM (inconclusive)
CN(C)C1(CNC(=O)c2ccc(Cl)c(S(N)(=O)=O)c2)CCCCC1,AC50,Plasmodium falciparum [9],20.8 µM (inactive)
same,AC50,Plasmodium falciparum [10],9.29 µM (inactive)
COc1cc2c(cc1OC)-c1cc(NCc3ccccc3)nc(=O)n1CC2,IC50,Hexokinase HKDC1,> 80 µM (inactive)
same,IC50,Hexokinase-1,> 80 µM (inactive)
